SMILES strings stand for the structures. Where “and” joins values, the source holds several entries; their conditions need not be identical. Equal values may be shown once.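 Protocol summary: plate cells (96-well), add compound at 5 concentrations, incubate 48 h, interpolate endpoints linearly. Here, GI50 denotes the concentration required for 50% inhibition of growth. The concentration for full growth arrest is given as TGI.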

Among the test systems are IGROV1 ovarian; MALME-3M melanoma; SK-MEL-2 melanoma; MDA-MB-231 breast; HCT-116 colon; OVCAR-8 ovarian; HL-60(TB) leukemia; HS 578T breast; COLO 205 colon; HCC-2998 colon.
Common to all, as to assay: NCI tumour cell line growth inhibition, 48 h

As to `CC1(C)CCC[C@]23C(=O)O[C@](O)(C(=O)C4=C[C@@](C)(/C=C/CCCc5ccc6ccc7cccc8ccc5c6c78)CC[C@@]42O)[C@@H]13`, the GI50 in the assay with IGROV1 ovarian was 175 nM; in the assay on MALME-3M melanoma, 177 nM; with SK-MEL-2 melanoma, 217 nM; in the assay on MDA-MB-231 breast, 197 nM; in the assay on HCT-116 colon, 132 nM; in the assay with OVCAR-8 ovarian, 250 nM. For the same compound, the GI50 in the assay with HL-60(TB) leukemia is 248 nM; with HS 578T breast it was 251 nM; with COLO 205 colon, 183 nM; with HCC-2998 colon it was 176 nM. Moreover, the TGI came out at 329 nM with IGROV1 ovarian; 332 nM with MALME-3M melanoma; 471 nM with SK-MEL-2 melanoma; 431 nM in the assay on MDA-MB-231 breast; 299 nM in the assay on HCT-116 colon; 1150 nM in the assay with OVCAR-8 ovarian. In addition, the TGI in the assay on HL-60(TB) leukemia worked out at 649 nM; with HS 578T breast, 812 nM; in the assay with COLO 205 colon it was 383 nM; in the assay with HCC-2998 colon, 323 nM.

Turning to `CN(C)CCCNc1nn2c(=O)c3ccccc3nc2c2ccccc12`, the GI50 is 6190 nM in the assay with IGROV1 ovarian; 11800 nM with MALME-3M melanoma; 20100 nM in the assay with SK-MEL-2 melanoma; 8020 nM with MDA-MB-231 breast; 3720 nM in the assay on HCT-116 colon; 7080 nM with OVCAR-8 ovarian. Besides, the GI50 is 18100 nM in the assay on HL-60(TB) leukemia, 3670 nM in the assay on HS 578T breast, 2390 nM in the assay with COLO 205 colon and 11600 nM in the assay with HCC-2998 colon. Also, the TGI in the assay with IGROV1 ovarian turned out to be 47800 nM; in the assay on MALME-3M melanoma, 29800 nM; in the assay with SK-MEL-2 melanoma, 43800 nM; with MDA-MB-231 breast, 28100 nM; with HCT-116 colon, 15700 nM; with OVCAR-8 ovarian it was 40700 nM. Besides, the TGI is 72700 nM in the assay with HL-60(TB) leukemia, 19900 nM with HS 578T breast, 13000 nM in the assay on COLO 205 colon and 26900 nM with HCC-2998 colon.

As for `COc1cc(C)c(C(=O)O[C@H]2[C@H](O[C@H]3[C@@H](O)COC(O[C@H]4C[C@H]5[C@@H]6CC=C7C[C@@H](O)CC[C@]7(C)[C@H]6CC[C@]5(C)[C@H]4[C@H](C)C(=O)CCC(C)C)[C@@H]3OC(C)=O)OC[C@@H](O)[C@@H]2O)c(C)c1` (stereo partly drawn), the GI50 is 247 nM with IGROV1 ovarian; 25.7 nM in the assay on MALME-3M melanoma; < 10 nM in the assay on SK-MEL-2 melanoma; 517 nM in the assay with MDA-MB-231 breast; < 10 nM with HCT-116 colon; 10300 nM in the assay on OVCAR-8 ovarian. The GI50 in the assay with HL-60(TB) leukemia was 16 nM; with HS 578T breast, < 10 nM; in the assay on COLO 205 colon, 30.7 nM; with HCC-2998 colon, 2410 nM. The TGI in the assay on IGROV1 ovarian was 19900 nM; in the assay with MALME-3M melanoma it was 5890 nM; in the assay on SK-MEL-2 melanoma, 302 nM; with MDA-MB-231 breast, 16100 nM; in the assay with HCT-116 colon, 2290 nM; with OVCAR-8 ovarian, > 100000 nM. The TGI in the assay with HL-60(TB) leukemia is 20000 nM; in the assay with HS 578T breast, 161 nM; with COLO 205 colon it was 382 nM; with HCC-2998 colon it was 20300 nM.

Regarding `C=C1CCC2C3(C)COC(c4ccc(NC(C)=O)cc4)OC3CCC2(C)C1C/C=C1/C(=O)OCC1O` (stereo not drawn), the GI50 in the assay on IGROV1 ovarian was > 100000 nM; in the assay with MALME-3M melanoma it was 5960 nM; with SK-MEL-2 melanoma it was 8120 nM; with MDA-MB-231 breast, > 100000 nM; in the assay with HCT-116 colon it was 4700 nM; in the assay on OVCAR-8 ovarian, 7760 nM. For the same compound, the GI50 is 2930 nM with HL-60(TB) leukemia, > 100000 nM in the assay with HS 578T breast, 4220 nM in the assay on COLO 205 colon and 7750 nM with HCC-2998 colon. For the same compound, the TGI in the assay on IGROV1 ovarian, in the assay with MALME-3M melanoma, with SK-MEL-2 melanoma, with MDA-MB-231 breast, in the assay with HCT-116 colon and in the assay on OVCAR-8 ovarian was > 100000 nM in each case. The TGI in the assay with HL-60(TB) leukemia, with HS 578T breast, with COLO 205 colon and in the assay with HCC-2998 colon was > 100000 nM in each case.

For `COc1ccc(/C(C)=C(\c2ccc(Cl)cc2)c2ccc(OCCN3CCCC3)cc2)cc1`, the GI50 with IGROV1 ovarian was 4130 nM; with MALME-3M melanoma it was 2720 nM; with SK-MEL-2 melanoma, 6450 nM; with MDA-MB-231 breast it was 3640 nM; in the assay on HCT-116 colon, 1550 nM; in the assay with OVCAR-8 ovarian, 5200 nM. In addition, the GI50 with HL-60(TB) leukemia is 4570 nM; in the assay on HS 578T breast, 4710 nM; in the assay on COLO 205 colon, 3570 nM; in the assay with HCC-2998 colon, 3060 nM. The TGI in the assay with IGROV1 ovarian amounted to 8910 nM; with MALME-3M melanoma, 7610 nM; in the assay on SK-MEL-2 melanoma, 11600 nM; in the assay with MDA-MB-231 breast it was 7800 nM; with HCT-116 colon, 5780 nM; in the assay with OVCAR-8 ovarian it was 10200 nM. Further, the TGI with HL-60(TB) leukemia came out at 10900 nM; in the assay on HS 578T breast, 11800 nM; with COLO 205 colon it was 7740 nM; with HCC-2998 colon, 7410 nM.

Consider `CC(C)C[C@H](NC(=O)[C@H](CCc1ccccc1)NC(=O)CN1CCOCC1)C(=O)N[C@@H](Cc1ccccc1)C(=O)N[C@@H](CC(C)C)C(=O)[C@@]1(C)CO1`, for which the GI50 is 32.4 nM with IGROV1 ovarian; 52.7 nM in the assay on MALME-3M melanoma; 14.4 nM in the assay on SK-MEL-2 melanoma; < 12.8 nM in the assay with MDA-MB-231 breast; < 10 nM in the assay on HCT-116 colon; 20.4 nM in the assay on OVCAR-8 ovarian. The GI50 with HL-60(TB) leukemia is 26.8 nM; in the assay with HS 578T breast, 22.4 nM; in the assay with COLO 205 colon, < 16.5 nM; in the assay on HCC-2998 colon, < 11.8 nM. Besides, the TGI is 586 nM with MALME-3M melanoma; 54.3 nM in the assay with SK-MEL-2 melanoma; 63.5 nM in the assay with MDA-MB-231 breast; < 12.5 nM in the assay with HCT-116 colon; 95.2 nM with OVCAR-8 ovarian; 93 nM in the assay on HL-60(TB) leukemia. Moreover, the values for the TGI with HS 578T breast, in the assay with COLO 205 colon and with HCC-2998 colon were 3340 nM, 172 nM and 22.7 nM, respectively.

Consider `C#CCN1C(=O)/C(=c2\sc3n(c2=O)C2C(NN=3)N(CC)C(=O)N2CC)c2ccccc21` (stereo not drawn), for which the GI50 in the assay on IGROV1 ovarian was 589 nM; in the assay on MALME-3M melanoma it was 595 nM; in the assay on SK-MEL-2 melanoma, 3210 nM; in the assay with MDA-MB-231 breast it was 2070 nM; in the assay with HCT-116 colon it was 376 nM; in the assay on OVCAR-8 ovarian, 1070 nM. Further, the GI50 in the assay on HL-60(TB) leukemia is 271 nM; with HS 578T breast, 368 nM; in the assay on COLO 205 colon it was 987 nM; in the assay on HCC-2998 colon it was 1190 nM. Further, the TGI is > 91100 nM with IGROV1 ovarian; > 100000 nM in the assay with MALME-3M melanoma; > 100000 nM in the assay with SK-MEL-2 melanoma; 40000 nM with MDA-MB-231 breast; > 100000 nM with HCT-116 colon; > 100000 nM in the assay on OVCAR-8 ovarian. Also, the TGI was 775 nM in the assay with HL-60(TB) leukemia, 32800 nM in the assay with HS 578T breast, > 100000 nM in the assay with COLO 205 colon and > 100000 nM in the assay with HCC-2998 colon.

Take `Nc1ncnc2c1c(C(F)(F)F)cn2[C@@H]1O[C@H](CO)[C@@H](O)[C@H]1O`: the GI50 with IGROV1 ovarian was 619 nM; in the assay on MALME-3M melanoma, 104 nM; in the assay with SK-MEL-2 melanoma, 953 nM; in the assay on MDA-MB-231 breast, 652 nM; in the assay on HCT-116 colon, 213 nM; in the assay on OVCAR-8 ovarian, 595 nM. Further, the GI50 with HL-60(TB) leukemia is 212 nM; with HS 578T breast, 813 nM; with COLO 205 colon, 73.1 nM; in the assay with HCC-2998 colon it was 633 nM. The TGI is > 100000 nM with IGROV1 ovarian; 2510 nM in the assay with MALME-3M melanoma; 2790 nM with SK-MEL-2 melanoma; > 100000 nM with MDA-MB-231 breast; > 100000 nM with HCT-116 colon; > 100000 nM in the assay on OVCAR-8 ovarian. The TGI with HL-60(TB) leukemia is 492 nM; in the assay on HS 578T breast, 7540 nM; in the assay on COLO 205 colon, 1400 nM; in the assay with HCC-2998 colon, 12800 nM.

As for `C(=N\Nc1nnc2c(n1)[nH]c1ccccc12)/c1cccnc1`, the TGI in the assay with IGROV1 ovarian, in the assay on MALME-3M melanoma, with SK-MEL-2 melanoma, in the assay with MDA-MB-231 breast, with HCT-116 colon and with OVCAR-8 ovarian was > 100000 nM each time. In addition, the TGI in the assay with HL-60(TB) leukemia, with HS 578T breast, in the assay with COLO 205 colon and in the assay with HCC-2998 colon was > 100000 nM throughout.

As for `C/C1=C\[C@H](C)C[C@H](C)OC(=O)C[C@H](c2ccc(O)cc2)NC(=O)[C@@H](Cc2c(Br)[nH]c3ccccc23)N(C)C(=O)[C@H](C)NC(=O)[C@@H](C)C1`, the GI50 is 23 nM in the assay on IGROV1 ovarian; 32 nM in the assay on MALME-3M melanoma; 99.9 nM and 20.7 nM in the assay with SK-MEL-2 melanoma; 32.9 nM in the assay with HCT-116 colon; 51.6 nM in the assay with OVCAR-8 ovarian; 17.6 nM in the assay on HL-60(TB) leukemia. In addition, the GI50 in the assay with HS 578T breast is 45.1 nM; in the assay on COLO 205 colon it was < 13.2 nM; with HCC-2998 colon, 430 nM. The TGI in the assay with IGROV1 ovarian was 265 nM and 60.2 nM; in the assay on MALME-3M melanoma it was 404 nM and 196 nM; with SK-MEL-2 melanoma, 251 nM and 47.6 nM; with MDA-MB-231 breast, 74.1 nM; in the assay with HCT-116 colon it was 705 nM and 5150 nM; in the assay with OVCAR-8 ovarian, 568 nM. For the same compound, the TGI was 384 nM and 175 nM in the assay with HL-60(TB) leukemia; 606 nM and 134 nM in the assay with HS 578T breast; 887 nM with COLO 205 colon; 2270 nM in the assay with HCC-2998 colon.

The values above are taken from PubChem BioAssay (NCI).
